Results as given in PubChem BioAssay (NCI).
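Following 48 hours of exposure in 96-well plates, responses at five concentrations were used to interpolate endpoints linearly. Abbreviation: GI50, concentration required for 50% inhibition of growth. TGI denotes the concentration required for complete inhibition of growth.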

Assays:
Assay in all cases: DTP human tumour cell line panel, 48 h
[1] = system: 786-0 renal
[2] = system: A498 renal
[3] = system: A549 NSCLC
[4] = system: ACHN renal
[5] = system: BT-549 breast
[6] = system: CAKI-1 renal
[7] = system: CCRF-CEM leukemia
[8] = system: COLO 205 colon
[9] = system: DU-145 prostate
[10] = system: EKVX NSCLC
[11] = system: HCC-2998 colon
[12] = system: HCT-116 colon
[13] = system: HCT-15 colon
[14] = system: HL-60(TB) leukemia
[15] = system: HOP-62 NSCLC
[16] = system: HOP-92 NSCLC
[17] = system: HS 578T breast
[18] = system: HT29 colon
[19] = system: IGROV1 ovarian
[20] = system: K-562 leukemia
[21] = system: KM12 colon
[22] = system: LOX IMVI melanoma
[23] = system: M14 melanoma
[24] = system: MALME-3M melanoma
[25] = system: MCF7 breast
[26] = system: MDA-MB-231 breast
[27] = system: MDA-MB-435
[28] = system: MDA-MB-468 breast
[29] = system: MOLT-4 leukemia
[30] = system: NCI-H226 lung
[31] = system: NCI-H23 lung
[32] = system: NCI-H460 lung
[33] = system: NCI-H522 lung
[34] = system: NCI/ADR-RES ovarian
[35] = system: OVCAR-3 ovarian
[36] = system: OVCAR-4 ovarian
[37] = system: OVCAR-5 ovarian
[38] = system: OVCAR-8 ovarian
[39] = system: PC-3 prostate
[40] = system: RPMI-8226 leukemia
[41] = system: RXF 393 renal
[42] = system: SF-268 CNS
[43] = system: SF-295 CNS
[44] = system: SF-539 CNS
[45] = system: SK-MEL-2 melanoma
[46] = system: SK-MEL-28 melanoma
[47] = system: SK-MEL-5 melanoma
[48] = system: SK-OV-3 ovarian
[49] = system: SN12C renal
[50] = system: SNB-19 CNS
[51] = system: SNB-75 CNS
[52] = system: SR leukemia
[53] = system: SW-620 colon
[54] = system: T-47D breast
[55] = system: TK-10 renal
[56] = system: U251 CNS
[57] = system: UACC-257 melanoma
[58] = system: UACC-62 melanoma
[59] = system: UO-31 renal

With `O=C(Nc1ccc(Cl)c(C(F)(F)F)c1)N1CCN(c2cc(-c3cn(-c4ccccc4)nc3-c3cccc(O)c3)ccn2)CC1` the GI50 [1] was 4020 nM, the TGI [1] was over 22000 nM and the GI50 [2] was 4720 nM. It also gave a TGI [2] of 21000 nM, a GI50 [3] of 4340 nM and a TGI [3] of over 22000 nM. For the same compound, the GI50 [4] was 3000 nM, the TGI [4] was 17000 nM and the GI50 [5] was 3330 nM. It also gave a TGI [5] of 7990 nM, a GI50 [6] of 4180 nM and a TGI [6] of 19400 nM. It also gave a GI50 [7] of 1590 nM, a TGI [7] of 9710 nM and a GI50 [8] of 3010 nM. For the same compound, the TGI [8] was 9390 nM, the GI50 [9] was 7150 nM and the TGI [9] was over 22000 nM. For the same compound, the GI50 [10] was 2570 nM, the TGI [10] was 19600 nM and the GI50 [11] was 6100 nM. The TGI [11] was over 22000 nM, the GI50 [12] was 1860 nM and the TGI [12] was over 22000 nM. It also gave a GI50 [13] of 2840 nM, a TGI [13] of over 22000 nM and a GI50 [14] of 2340 nM. It also gave a TGI [14] of 8580 nM, a GI50 [15] of 6280 nM and a TGI [15] of over 22000 nM. The GI50 [16] was 2590 nM, the TGI [16] was 15900 nM and the GI50 [17] was 3390 nM. It also gave a TGI [17] of 15800 nM, a GI50 [18] of 4100 nM and a TGI [18] of over 22000 nM. The GI50 [19] was 5110 nM, the TGI [19] was over 22000 nM and the GI50 [20] was 2130 nM. For the same compound, the TGI [20] was over 22000 nM, the GI50 [21] was 3340 nM and the TGI [21] was 15200 nM. For the same compound, the GI50 [22] was 2990 nM, the TGI [22] was 6520 nM and the GI50 [23] was 3030 nM. It also gave a TGI [23] of 12500 nM, a GI50 [24] of 3300 nM and a TGI [24] of 8950 nM. For the same compound, the GI50 [25] was 1800 nM, the TGI [25] was 10100 nM and the GI50 [26] was 3070 nM. For the same compound, the TGI [26] was 7570 nM, the GI50 [27] was 2290 nM and the TGI [27] was 6330 nM. The GI50 [28] was 1030 nM, the TGI [28] was 7220 nM and the GI50 [29] was 930 nM. The TGI [29] was 7580 nM, the GI50 [30] was 3220 nM and the TGI [30] was 15800 nM. The GI50 [31] was 3690 nM, the TGI [31] was 14900 nM and the GI50 [32] was 2470 nM. It also gave a TGI [32] of over 22000 nM, a GI50 [33] of 2770 nM and a TGI [33] of 9260 nM. The GI50 [34] was 2910 nM, the TGI [34] was 11900 nM and the GI50 [35] was 1760 nM. For the same compound, the TGI [35] was 11500 nM, the GI50 [36] was 2020 nM and the TGI [36] was over 22000 nM. It also gave a GI50 [37] of 4130 nM, a TGI [37] of 10500 nM and a GI50 [38] of 4720 nM. For the same compound, the TGI [38] was over 22000 nM, the GI50 [39] was 967 nM and the TGI [39] was 17000 nM. The GI50 [40] was 1210 nM, the TGI [40] was 11800 nM and the GI50 [41] was 2420 nM. The TGI [41] was 9790 nM, the GI50 [42] was 3300 nM and the TGI [42] was over 22000 nM. For the same compound, the GI50 [43] was 1500 nM, the TGI [43] was 7250 nM and the GI50 [44] was 4210 nM. The TGI [44] was over 22000 nM, the GI50 [45] was 3540 nM and the TGI [45] was 7560 nM. For the same compound, the GI50 [46] was 3410 nM, the TGI [46] was 10300 nM and the GI50 [47] was 2580 nM. For the same compound, the TGI [47] was 5450 nM, the GI50 [48] was 6430 nM and the TGI [48] was over 22000 nM. It also gave a GI50 [49] of 3210 nM, a TGI [49] of over 22000 nM and a GI50 [50] of 4060 nM. The TGI [50] was over 22000 nM, the GI50 [51] was 634 nM and the TGI [51] was 11100 nM. The GI50 [52] was 3070 nM, the TGI [52] was over 22000 nM and the GI50 [53] was 4780 nM. For the same compound, the TGI [53] was over 22000 nM, the GI50 [54] was 1130 nM and the TGI [54] was 14800 nM. It also gave a GI50 [55] of 5920 nM, a TGI [55] of over 22000 nM and a GI50 [56] of 4230 nM. For the same compound, the TGI [56] was over 22000 nM, the GI50 [57] was 4770 nM and the TGI [57] was 14300 nM. The GI50 [58] was 2680 nM, the TGI [58] was 5770 nM and the GI50 [59] was 3000 nM. The TGI [59] was over 22000 nM.
With `CN(CCSSCCN1CCOCC1)C(=O)Oc1cc2c(c3ccccc13)[C@H](CCl)CN2C(=O)c1cc2cc(OCCCN3CCC3)ccc2[nH]1` the GI50 [7] was 102 nM, the TGI [7] was 9890 nM and the GI50 [9] was 11.9 nM. The TGI [9] was 2980 nM, the GI50 [10] was 42 nM and the TGI [10] was 134 nM. For the same compound, the GI50 [11] was 27 nM, the TGI [11] was 102 nM and the GI50 [12] was 45.2 nM. For the same compound, the TGI [12] was 5040 nM, the GI50 [13] was 57.4 nM and the TGI [13] was 642 nM. For the same compound, the GI50 [14] was 131 nM, the TGI [14] was 1400 nM and the GI50 [15] was 2.51 nM. The TGI [15] was 28.8 nM, the GI50 [16] was 382 nM and the TGI [16] was 1440 nM. For the same compound, the GI50 [17] was 178 nM, the TGI [17] was 1100 nM and the GI50 [18] was 69.9 nM. The TGI [18] was 25000 nM, the GI50 [20] was 75.1 nM and the TGI [20] was 2670 nM. The GI50 [21] was 30.6 nM, the TGI [21] was 5430 nM and the GI50 [23] was 10.1 nM. For the same compound, the TGI [23] was 42.6 nM, the GI50 [24] was 48.1 nM and the TGI [24] was 123 nM. It also gave a GI50 [25] of 7.52 nM, a TGI [25] of 2640 nM and a GI50 [26] of 71.1 nM. It also gave a TGI [26] of 178 nM, a GI50 [27] of 36.7 nM and a TGI [27] of 104 nM. The GI50 [28] was 40.2 nM, the TGI [28] was 173 nM and the GI50 [31] was 10.1 nM. For the same compound, the TGI [31] was 43.3 nM, the GI50 [33] was 273 nM and the TGI [33] was 1020 nM. The GI50 [35] was 236 nM, the TGI [35] was 2380 nM and the GI50 [36] was 615 nM. It also gave a TGI [36] of 2280 nM, a GI50 [37] of 67.5 nM and a TGI [37] of 266 nM. It also gave a GI50 [38] of 24.7 nM, a TGI [38] of 136 nM and a GI50 [39] of 39.6 nM. For the same compound, the TGI [39] was 1770 nM, the GI50 [40] was 473 nM and the TGI [40] was 5180 nM. For the same compound, the GI50 [41] was 40.6 nM, the TGI [41] was 82.9 nM and the GI50 [42] was 24.4 nM. The TGI [42] was 849 nM, the GI50 [43] was 3.04 nM and the TGI [43] was 10.8 nM. It also gave a GI50 [44] of 51.3 nM, a TGI [44] of 123 nM and a GI50 [45] of 49.4 nM. It also gave a TGI [45] of 95.9 nM, a GI50 [46] of 29.1 nM and a TGI [46] of 66.7 nM. It also gave a GI50 [47] of 6.32 nM, a TGI [47] of 32.1 nM and a GI50 [48] of 8.67 nM. It also gave a TGI [48] of 101 nM, a GI50 [49] of 64.9 nM and a TGI [49] of 1440 nM. It also gave a GI50 [50] of 6.65 nM, a TGI [50] of 127 nM and a GI50 [51] of 38 nM. The TGI [51] was 173 nM, the GI50 [53] was 46.4 nM and the TGI [53] was 2700 nM. It also gave a GI50 [54] of 287 nM, a TGI [54] of 1700 nM and a GI50 [55] of 971 nM. For the same compound, the TGI [55] was 5810 nM, the GI50 [58] was 6.25 nM and the TGI [58] was 32.1 nM.
